Assay results: ChEMBL document CHEMBL6153099, “Fatuamide A, a Hybrid PKS/NRPS Metallophore from a Leptolyngbya sp. Marine Cyanobacterium Collected in American Samoa” (J Nat Prod, 2025)
Active and inactive are the calls of the source. No cut-off for these calls is given here.

What was measured:
[1] = system: NCI-H460; assay: Cytotoxicity against human NCI-H460 cells at 2 to 60000 nM incubated for 48 hrs by MTT assay; type: functional, cell-based; details: dose 2-60000 nM
[2] = system: RAW264.7; assay: Antiinflammatory activity in LPS-induced mouse RAW264.7 cells assessed as reduction in NO production at 10 to 30 microg/ml preincubated for 24 hrs by Griess reagent based assay; type: functional, cell-based; details: dose 10-30 µg/ml

C[C@H](C[C@@H](C)CCC(=O)N[C@@H](Cc1ccccc1)[C@H](O)C[C@H](O)CC(=O)N[C@@H](Cc1ccccc1)[C@H](O)CC(=O)NCC(=O)O)C[C@@H]1CSC(c2ccccc2O)=N1
Activity [1]: Active
Activity [2]: inactive
